Test results taken from patent publication US20240351977A1, “Compositions and Methods For Reducing Immune Intolerance and Treating Autoimmune Disorders” (Lapix Therapeutics, Inc., priority 2021, published 2024).
One block for each compound: values may come before it.

Legend:
[1] = system: FoxP3^+/TIM3^+ CD4 T-cells; assay: In vitro dose-response analysis in murine T-cells (splenocytes, flow cytometry); format: cell-based, C57BL/6 mice; conditions: for change in FoxP3+/TIM3+ CD4 T-cells with dose: 48 μM to 1.5 μM; for EC50 / EC90: Mus musculus, T-cell, increase in percent FoxP3+/TIM3+ CD4 T-cells, 30:70 drug:DMPC liposomes, 4-parameter model, Emax fixed to 7.9%; for EC50: read-out: EC50 mean (SE); for EC90: read-out: EC90 mean (SE)
Protocol: Compound 1 and Compound 2 were each formulated with dimyristoylphosphatidylcholine (DMPC) at a 30:70 drug to lipid molar ratio. Liposomes were synthesized according to Example 2 in PBS.
Splenocytes from naïve C57BL/6 mice were stained with CFSE, prepared, cultured, and dosed. Cells were seeded at 2×10^5 cells/well. Cells were dosed with each compound from 48 μM to 1.5 μM at a log 2 dilution scheme. Cells were incubated for 72 hours before phenotyping for FoxP3^+/TIM3^+ CD4 T-cells. Flow cytometer analysis was performed to assess changes in percent FoxP3^+/TIM3^+ CD4 T-cells as a function of treatment and dose. Concentration versus response was fitted to a four- or five-parameter log-logistic model (using the “drc” package in “R”). The EC50 and EC90 values were obtained by model fitting.

FoxP3^+/CD4^+ T-cells [2] = assay: Pharmacodynamic effects of a single PO dose in mice (splenocyte phenotyping); format: in vivo; conditions: for percentage of FoxP3+/CD4+ T-cells, mean value: single oral gavage, 10:90 Compound 2:DMPC
Protocol: Compound 2 was dissolved in DMSO and formulated with 1,2-dimyristoyl-sn-glycero-3-phosphocholine (DMPC) at a molar ratio of 10:90 Compound 2:DMPC, as described in Example 2. Animals were dosed according to Table 7.
To evaluate the PD effects of a single dose of Compound 2 in mice, the animals were administered a single oral gavage as per their group assignment (Table 7). Five days after the oral dose, the animals were sacrificed and their spleens were collected for T-cell phenotyping. The study included an ex vivo analysis followed by a dose-response analysis (FIG. 4A). The spleens collected for splenocyte analysis were prepared into a single-cell suspension for cellular phenotyping by flow cytometry (eBioscience, Inc., San Diego, CA). Cells were stained and gated for CD4. Percent FoxP3^+/CD4^+ T-cells were evaluated using flow cytometry. A dose versus response curve was fitted to a four- or five-parameter log-logistic model (using the “drc” package in “R”). The EC50 and EC90 values were obtained by model fitting.

[3] = system: MOG35-55-Induced Murine EAE Model; assay: MOG35-55-induced murine EAE model, prophylactic and therapeutic treatment; format: in vivo, mice
Protocol: Compound 2 was formulated with 1,2-distearoyl-sn-glycero-3-phosphocholine (DSPC) at a molar ratio of 3.75:96.25 Compound 2:DSPC. Two test articles were formulated and tested. The first formulation was made with Compound 2:DSPC with MOG35-55, referred to as Compound 2/MOG35-55. Another formulation was made without […], and is referred to as Compound 2. […] The ratio of Compound 2 to DSPC was chosen based on in vitro dose-response studies. Liposomes were prepared as described in Example 2, in PBS and extruded through a […] filter. Animals were dose with 100 μl of 42 μM Compound 2 or 100 μl of 42 μM/1 μg Compound 2/MOG35-55 per mouse PO QD. This dose was selected based on in vitro dose-response analysis.
In the active EAE model, mice are immunized with MOG35-55 peptide emulsified in Complete Freund's Adjuvant (CFA) by subcutaneous injection at the tail base (0.1 mL of emulsion/mouse) under anesthesia. On the day of injection (Day 0) and 2 days later, mice receive an intraperitoneal injection of Pertussis Toxin (PT) in PBS at 600 ng/mouse/dose (0.1 mL).
Symptoms typically develop in mice 9-14 days after immunization (Day 0). Daily observation and scoring of mice start on Day 9 and continue until the end of the study. Table 10 details the expected clinical symptoms and the scoring criteria used in this study.
Mice were dosed with 100 μl of 42 μM Compound 2 or 100 μl of 42 μM of Compound 2 co-formulated with 1 μg of MOG35-55 (Compound 2/MOG35-55) orally QD for the duration of the study.
To evaluate the therapeutic effects of Compound 2, treatment was initiated after the first clinical symptoms were observed. […] The treatment arm received 100 μl of 42 μM Compound 2 PO QD for the remainder of the study. Mice in all groups were monitored and scored daily for clinical symptoms. Once a mouse reached a score of five as per Table 11 or was found dead in the cage it was marked as an event in the survival analysis.

FoxP3^+/CD4^+ T-cells [4] = assay: Splenocyte flow cytometry at end of EAE study; format: in vivo, mice
Protocol: At the end of the study, spleens were collected from a representative sample of mice from each group for splenocyte analysis. A single-cell suspension was prepared for cellular phenotyping by flow cytometry. Cells were stained and gated for CD4^+T-cells. Percent FoxP3^+/CD4^+ T-cells were evaluated by flow cytometry.

[5] = four-parameter dose-response model, percent FoxP3+/CD4+ T-cells, single oral dose
[6] = four-parameter dose-response model, single oral dose, 100 μl/mouse
[7] = mouse treated after the onset of symptoms

SMILES: CCCCCCCCCCCCCCCCCC(=O)NC[C@H](N)C(=O)O [Compound 2, (S)-2-amino-3-stearamidopropanoic acid]
increase in FoxP3+/TIM3+ CD4 T-cells over low dose ([1]; 30 μM): 129%
toxicity in vitro ([1]; 30 µM dose): less toxicity in vitro compared to Compound 1
change in FoxP3+/TIM3+ CD4 T-cells with dose [1]: dose-dependent increase
EC50 ([1]; 72 hours): 14.6 µM
EC90 ([1]; 72 hours): 17.8 µM
FoxP3+/TIM3+ double positive CD4 T-cells, mean value ([1]; high dose, 72 hours): 7.36%
FoxP3+/TIM3+ double positive CD4 T-cells, mean value ([1]; low dose, 72 hours): 3.21%
maximum efficacious dose in vitro ([1]; preliminary data): 42 µM
E0 (model estimated), Mean (FoxP3^+/CD4^+ T-cells [2]; [5]): 3.3
Emax (model estimated), Mean (FoxP3^+/CD4^+ T-cells [2]; [5]): 12.1%
ED50 (FoxP3^+/CD4^+ T-cells [2]; [6]): 43.1 µM
ED90 (FoxP3^+/CD4^+ T-cells [2]; [6]): 281.0 µM
percentage of FoxP3+/CD4+ T-cells, mean value (FoxP3^+/CD4^+ T-cells [2]; high dose group, 5 days): 11.53%
percentage of FoxP3+/CD4+ T-cells, mean value (FoxP3^+/CD4^+ T-cells [2]; low dose group, 5 days): 3.87%
increase of FoxP3+/CD4+ T-cells (T-regs), high dose group compared to low dose group (FoxP3^+/CD4^+ T-cells [2]; single oral dose, 5 days): 219%
mean clinical score by end of the study ([3]; prophylactic): 2.1
disease onset, day after immunization ([3]; prophylactic, 100 μl of 42 μM PO QD from four days after immunization, control day 9): 12 days
mean clinical score at peak symptoms ([3]; prophylactic, day 17, control 4.77): 2.6
day by which all animals showed symptoms ([3]; prophylactic, control 11): 13 days
delay in disease progression after disease onset ([3]; therapeutic, 100 μl of 42 μM PO QD from clinical score of 1): one-day
mean clinical score lower than in the untreated arm ([3]; therapeutic, by the end of the study): 54%
mean clinical score at peak symptoms ([3]; therapeutic, day 6 after the onset of symptoms, control 4.77 on day 7): 2.8
mean clinical score after the peak ([3]; therapeutic, day 10 after the onset of symptoms): 2.33
animals that spontaneously died or were euthanized (survival analysis) ([3]; untreated group eight out of nine): zero out of nine
increase of Foxp3+/CD4+ T-cells over the surviving mouse in the untreated group (FoxP3^+/CD4^+ T-cells [4]; [7]): 715%
percent Foxp3+/CD4+ T-cell (FoxP3^+/CD4^+ T-cells [4]; [7]): 26.1%
increase of Foxp3+/CD4+ T-cells over control (FoxP3^+/CD4^+ T-cells [4]; prophylactic group): 225%
percent of Foxp3+/CD4+ T-cells (FoxP3^+/CD4^+ T-cells [4]; prophylactic group, end of study, control 3.20%): 10.4%

cell appearance via microscope at end of incubation ([1]; 48 μM, 72 hours): did not look healthy
EC50 ([1]; 72 hours): 13.4 µM
EC90 ([1]; 72 hours): 15 µM
SMILES: CCCCCCCCCCCCCCCCOC(=O)NC[C@H](N)C(=O)O [Compound 1, (S)-2-amino-3-(((hexadecyloxy)carbonyl)amino) propanoic acid]
increase in FoxP3+/TIM3+ CD4 T-cells over low dose ([1]; 10 μM): 126%
change in FoxP3+/TIM3+ CD4 T-cells with dose [1]: dose-dependent increase
FoxP3+/TIM3+ double positive CD4 T-cells, mean value ([1]; high dose, 72 hours): 8.26%
FoxP3+/TIM3+ double positive CD4 T-cells, mean value ([1]; low dose, 72 hours): 3.65%
